Experimental findings from patent publication US10475593B2, “Use of halogen derivatives of histidine as electrolytic salt in a photovoltaic dye cell” (CENTRE NATIONAL DE LA RECHERCHE SCIENTIFIQUE, priority 2014, dated 2019) are described below.

The series is described as follows: Thermogravimetric analysis under air. Type of series: physicochemical. The method, then:
A thermogravimetric analysis under air of the compound 3a was also carried out after storage exposed to the air for 3 weeks.
By way of comparison, a thermogravimetric analysis of an imidazolium iodide not coming within the invention, namely 1,3-dimethylimidazolium iodide (DMII), was also carried out.
The results obtained are given in the appended FIGS. 1 and 2. FIG. 1 gives the results of the calorimetric analysis of the compound 3a. In this figure, the heat flux (in W/g) is a function of the temperature (in ° C.). FIG. 2 gives the results of the thermogravimetric analysis for the compound 3a (continuous line) in comparison with the DMII (noncontinuous line).
In comparison, DMII allows a loss in weight of the order of 30% originating from the water captured as a result of its hygroscopicity.

As to `Cn1cc[n+](C)c1.[I-]` [DMII, 1,3-Dimethylimidazolium iodide, reference compound], the “loss in weight originating from captured water (hygroscopicity)” value (thermogravimetric analysis) was roughly 30%. As to `COC(=O)CCc1cn(C)c[n+]1C.[I-]` [Compound 3a, 4-(3-methoxy-3-oxopropyl)-1,3-dimethyl-1H-imidazol-3-ium Iodide], the hygroscopicity entry (after storage exposed to the air for 3 weeks) is on record as “does not exhibit any hygroscopicity nature”. The “temperature up to which the compound is stable” value (thermogravimetric analysis under air) was 300 °C.
